Columns and labels:
[1] = molecular target: T1, Lanosterol synthase (Rattus norvegicus, UniProt P48450); test: Compound was evaluated for the inhibition of microsomal 2,3-oxidosqualene cyclase in rat liver microsomes; parameters: species or system Microsome; details: read-out: I50
T1 sequence (P48450 whole entry): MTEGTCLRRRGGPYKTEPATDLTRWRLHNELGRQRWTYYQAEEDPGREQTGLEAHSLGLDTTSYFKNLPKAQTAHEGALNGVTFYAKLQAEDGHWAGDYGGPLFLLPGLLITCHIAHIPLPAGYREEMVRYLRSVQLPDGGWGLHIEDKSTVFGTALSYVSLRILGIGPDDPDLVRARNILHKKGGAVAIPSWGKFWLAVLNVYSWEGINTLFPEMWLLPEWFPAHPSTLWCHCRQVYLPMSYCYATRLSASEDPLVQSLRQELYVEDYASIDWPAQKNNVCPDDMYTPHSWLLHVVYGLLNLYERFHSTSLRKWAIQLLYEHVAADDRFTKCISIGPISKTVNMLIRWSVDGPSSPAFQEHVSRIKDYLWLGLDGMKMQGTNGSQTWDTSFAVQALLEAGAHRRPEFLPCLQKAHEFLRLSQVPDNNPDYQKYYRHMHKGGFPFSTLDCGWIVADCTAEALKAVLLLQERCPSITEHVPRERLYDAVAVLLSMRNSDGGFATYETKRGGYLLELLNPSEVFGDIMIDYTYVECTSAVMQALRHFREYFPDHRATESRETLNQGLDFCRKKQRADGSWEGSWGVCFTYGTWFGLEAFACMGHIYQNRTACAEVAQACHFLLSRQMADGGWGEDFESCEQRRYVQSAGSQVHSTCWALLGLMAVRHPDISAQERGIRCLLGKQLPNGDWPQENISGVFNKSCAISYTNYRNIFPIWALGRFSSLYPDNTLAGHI

[2] = molecular target: T1, Lanosterol synthase; test: Compound was evaluated for the inhibition of microsomal 2,3-oxidosqualene-lanosterol cyclase in rat liver microsomes; parameters: species or system Microsome; details: read-out: I50

| SMILES | IC50 [1] [µM] | IC50 [2] [µM] |
| --- | --- | --- |
| CC(C)=CCC/C(C)=C/CCC(C)=CCCCN(C)CC/C=C(/C)CCC1OC1(C)C (configuration not stated) | > 20 | – |
| CC(C)=CCC/C(C)=C/CC/C(C)=C/CCCN(C)CC/C=C(\C)CCC1OC1(C)C (configuration not stated) | – | 4.8 |

From ChEMBL document CHEMBL1125522, “2,3-Epoxy-10-aza-10,11-dihydrosqualene, a high-energy intermediate analogue inhibitor of 2,3-oxidosqualene cyclase” (J Med Chem, 1992)
